Read-outs that look alike come from different tables or passages of the source.
Key:
Phytophthora infestans = assay type: in vivo; conditions: solo compound
Plasmopara viticola = assay: Activity against Plasmopara viticola on grape (cv Gutedel) leaf discs (Example B-2); conditions: solo compound
Source text: The action to be expected E for a given active ingredient combination obeys the so-called COLBY formula and can be calculated as follows (COLBY, S. R. “Calculating synergistic and antagonistic responses of herbicide combination”. Weeds, Vol. 15, pages 20-22; 1967):
According to COLBY, the expected (additive) action of active ingredients A)+B) using p+q ppm of active ingredient is [formula]
If the action actually observed (O) is greater than the expected action (E), then the action of the combination is super-additive, i.e. there is a synergistic effect. In mathematical terms the synergism factor SF corresponds to O/E. In the agricultural practice an SF of ≧1.2 indicates significant improvement over the purely complementary addition of activities (expected activity), while an SF of ≦0.9 in the practical application routine signals a loss of activity compared to the expected activity.
The efficacy of the mixtures against Plasmopara viticola may be determined in micro scale on grape leaf discs in 24-well plates (repeated on 4 discs per variation). […] The inoculation is done by spraying the sporangial suspension (70 000 sp/ml) on the lower leaf side. The infected (sporulating) area of each leaf disc is measured 7-8 days after incubation (under standard conditions in a climatic chamber +18° C., 12 hours day/night cycle) as a %-value of the total leaf disc area. The activity is calculated as a %-value relative to the disease rate on fully infected, untreated grape leave discs. The expected fungicide interactions of the components in the mixtures (E-values) are calculated according to the method of Colby.

**Q.** Which “observed activity (O in %)” value (Phytophthora infestans; 0.025 ppm) does the source give for `O=[N+]([O-])c1cc(C(F)(F)F)c(Cl)c([N+](=O)[O-])c1Nc1ncc(C(F)(F)F)cc1Cl` [III, fluazinam] here?
**A.** 0%

**Q.** And the “observed activity (O in %)” value (Phytophthora infestans; 0.05 ppm)?
**A.** 0%

**Q.** And the “observed activity (O in %)” value (Phytophthora infestans; 0.5 ppm)?
**A.** 29%

**Q.** `COCC(=O)N(c1c(C)cccc1C)[C@H](C)C(=O)OC` [IIa, metalaxyl-M] was tested. Which “observed activity (O in %)” value (Plasmopara viticola; 0.025 ppm) did it give?
**A.** 3%

**Q.** What about the “observed activity (O in %)” value (Plasmopara viticola; 0.05 ppm) of the same molecule?
**A.** 5%

**Q.** And the “observed activity (O in %)” value (Plasmopara viticola; 0.1 ppm)?
**A.** 9%

**Q.** `COc1ccc(C(=CC(=O)N2CCOCC2)c2ccc(Cl)cc2)cc1OC` [IX, dimethomorph] was tested. Which “observed activity (O in %)” value (Plasmopara viticola; 0.01 ppm) did it give?
**A.** 0%

**Q.** And the “observed activity (O in %)” value (Plasmopara viticola; 0.05 ppm)?
**A.** 14%

**Q.** What about the “observed activity (O in %)” value (Plasmopara viticola; 1 ppm) of the same molecule?
**A.** 62%

**Q.** Which “observed activity (O in %)” value (Phytophthora infestans; 0.5 ppm) does the source give for `N#Cc1c(Cl)c(Cl)c(Cl)c(C#N)c1Cl` [V, chlorothalonil] here?
**A.** 0%

**Q.** With `CO/C=C(/C(=O)OC)c1ccccc1Oc1cc(Oc2ccccc2C#N)ncn1` [VIa, azoxystrobin] as the molecule, how does the “observed activity (O in %)” value (Plasmopara viticola; 0.01 ppm) read?
**A.** 0%

**Q.** For `CCNC(=O)NC(=O)C(C#N)=NOC` [XI, cymoxanil], which “observed activity (O in %)” value (Plasmopara viticola; 0.01 ppm) is on record?
**A.** 0%

**Q.** And the “observed activity (O in %)” value (Plasmopara viticola; 0.025 ppm)?
**A.** 8%

**Q.** Which “observed activity (O in %)” value (Plasmopara viticola; 0.25 ppm) does the source give for mancozeb [IV] here?
**A.** 3%

**Q.** What about the “observed activity (O in %)” value (Plasmopara viticola; 0.5 ppm) of the same molecule?
**A.** 15%
